Source: ChEMBL document CHEMBL5291721, “A preclinical secondary pharmacology resource illuminates target-adverse drug reaction associations of marketed drugs” (Nat Commun, 2023)

Experiments:
Adenosine receptor A3 [1] = target: T1, Adenosine receptor A3 (Homo sapiens, UniProt P0DMS8)
T1 sequence (P0DMS8 whole entry): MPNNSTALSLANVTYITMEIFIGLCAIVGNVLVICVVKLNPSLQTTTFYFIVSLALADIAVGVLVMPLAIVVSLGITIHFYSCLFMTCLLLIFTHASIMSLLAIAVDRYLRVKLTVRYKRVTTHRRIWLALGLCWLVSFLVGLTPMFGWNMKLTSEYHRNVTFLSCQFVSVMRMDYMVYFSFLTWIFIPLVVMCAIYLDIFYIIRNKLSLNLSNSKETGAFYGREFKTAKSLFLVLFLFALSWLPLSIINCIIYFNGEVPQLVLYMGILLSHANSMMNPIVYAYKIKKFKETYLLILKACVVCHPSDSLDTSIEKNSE

Adenosine receptor A3 [2] = target: T1, Adenosine receptor A3; remark: listed apart in the source
[3] = target: T2, Alpha-2A adrenergic receptor (Homo sapiens, UniProt P08913); format: functional, cell-based
T2 sequence (P08913 whole entry): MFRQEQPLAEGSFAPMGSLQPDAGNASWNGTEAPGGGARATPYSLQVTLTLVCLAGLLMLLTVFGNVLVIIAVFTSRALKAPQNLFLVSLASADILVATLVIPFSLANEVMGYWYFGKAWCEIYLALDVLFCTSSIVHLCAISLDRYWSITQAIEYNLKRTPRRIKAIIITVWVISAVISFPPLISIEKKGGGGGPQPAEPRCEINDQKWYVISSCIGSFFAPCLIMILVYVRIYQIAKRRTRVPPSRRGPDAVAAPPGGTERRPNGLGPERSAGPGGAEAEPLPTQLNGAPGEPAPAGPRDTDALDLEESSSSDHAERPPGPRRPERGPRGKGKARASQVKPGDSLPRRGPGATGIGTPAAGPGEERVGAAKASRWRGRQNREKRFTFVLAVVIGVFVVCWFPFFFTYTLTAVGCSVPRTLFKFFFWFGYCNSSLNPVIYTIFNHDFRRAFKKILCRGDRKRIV

[4] = target: Beta-1 adrenergic receptor (Homo sapiens, UniProt P08588); format: functional
Sequence of Beta-1 adrenergic receptor (P08588 whole entry): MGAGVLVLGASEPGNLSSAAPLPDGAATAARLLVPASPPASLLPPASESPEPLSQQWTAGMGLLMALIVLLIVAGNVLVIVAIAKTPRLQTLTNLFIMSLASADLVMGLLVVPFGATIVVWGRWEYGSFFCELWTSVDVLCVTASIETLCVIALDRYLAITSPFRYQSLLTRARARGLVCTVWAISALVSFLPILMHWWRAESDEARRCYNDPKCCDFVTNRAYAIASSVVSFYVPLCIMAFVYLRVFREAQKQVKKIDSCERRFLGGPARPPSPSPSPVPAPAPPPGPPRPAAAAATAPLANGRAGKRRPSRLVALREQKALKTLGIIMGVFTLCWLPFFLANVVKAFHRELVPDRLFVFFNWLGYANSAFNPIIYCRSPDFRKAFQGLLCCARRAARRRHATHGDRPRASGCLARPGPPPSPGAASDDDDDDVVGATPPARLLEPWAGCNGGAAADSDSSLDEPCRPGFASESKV

[5] = target: T3, Type-1 angiotensin II receptor (Homo sapiens, UniProt P30556)
T3 sequence (P30556 whole entry): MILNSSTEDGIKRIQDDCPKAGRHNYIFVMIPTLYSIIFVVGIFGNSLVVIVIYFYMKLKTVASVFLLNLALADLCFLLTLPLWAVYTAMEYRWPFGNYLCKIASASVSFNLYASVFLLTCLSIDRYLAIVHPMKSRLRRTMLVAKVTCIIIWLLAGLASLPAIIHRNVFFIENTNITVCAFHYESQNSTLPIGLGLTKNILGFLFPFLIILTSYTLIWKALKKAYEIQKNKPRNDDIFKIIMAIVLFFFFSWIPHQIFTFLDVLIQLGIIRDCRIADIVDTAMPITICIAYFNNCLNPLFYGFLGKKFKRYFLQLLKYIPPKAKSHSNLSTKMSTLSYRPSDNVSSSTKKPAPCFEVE

[6] = target: T4, Muscarinic acetylcholine receptor M1 (Homo sapiens, UniProt P11229); format: functional, cell-based
T4 sequence (P11229 whole entry): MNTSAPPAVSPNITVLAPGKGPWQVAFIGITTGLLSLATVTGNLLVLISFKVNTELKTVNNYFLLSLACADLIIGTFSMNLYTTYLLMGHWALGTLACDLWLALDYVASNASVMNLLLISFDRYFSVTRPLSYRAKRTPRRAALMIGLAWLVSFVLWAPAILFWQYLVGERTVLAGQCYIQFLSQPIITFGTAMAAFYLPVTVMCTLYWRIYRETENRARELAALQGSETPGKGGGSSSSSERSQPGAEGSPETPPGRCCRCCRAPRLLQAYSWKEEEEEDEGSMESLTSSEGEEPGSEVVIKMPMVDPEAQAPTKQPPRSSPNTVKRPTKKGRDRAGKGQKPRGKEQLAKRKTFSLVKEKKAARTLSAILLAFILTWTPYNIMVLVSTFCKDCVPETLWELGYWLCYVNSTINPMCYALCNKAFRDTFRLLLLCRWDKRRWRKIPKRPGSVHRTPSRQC

[7] = target: T4, Muscarinic acetylcholine receptor M1; format: functional, cell-based; remark: listed apart in the source
[8] = target: T5, Muscarinic acetylcholine receptor M2 (Homo sapiens, UniProt P08172); format: functional, cell-based
T5 sequence (P08172 whole entry): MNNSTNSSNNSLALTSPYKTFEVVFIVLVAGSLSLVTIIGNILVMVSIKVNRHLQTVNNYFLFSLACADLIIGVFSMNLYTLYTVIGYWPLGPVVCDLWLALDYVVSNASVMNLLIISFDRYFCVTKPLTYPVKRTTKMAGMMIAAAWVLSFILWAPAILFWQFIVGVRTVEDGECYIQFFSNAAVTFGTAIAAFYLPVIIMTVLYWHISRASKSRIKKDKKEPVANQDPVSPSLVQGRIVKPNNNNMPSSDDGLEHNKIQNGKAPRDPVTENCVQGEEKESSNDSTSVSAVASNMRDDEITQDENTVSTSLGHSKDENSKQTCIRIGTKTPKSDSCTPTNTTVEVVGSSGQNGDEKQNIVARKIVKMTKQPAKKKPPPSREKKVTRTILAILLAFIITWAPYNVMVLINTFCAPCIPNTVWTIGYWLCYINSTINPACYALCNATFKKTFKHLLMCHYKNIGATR

[9] = target: Gamma-aminobutyric acid receptor subunit alpha-1 (Rattus norvegicus, UniProt P62813); format: functional
Sequence of Gamma-aminobutyric acid receptor subunit alpha-1 (P62813 whole entry): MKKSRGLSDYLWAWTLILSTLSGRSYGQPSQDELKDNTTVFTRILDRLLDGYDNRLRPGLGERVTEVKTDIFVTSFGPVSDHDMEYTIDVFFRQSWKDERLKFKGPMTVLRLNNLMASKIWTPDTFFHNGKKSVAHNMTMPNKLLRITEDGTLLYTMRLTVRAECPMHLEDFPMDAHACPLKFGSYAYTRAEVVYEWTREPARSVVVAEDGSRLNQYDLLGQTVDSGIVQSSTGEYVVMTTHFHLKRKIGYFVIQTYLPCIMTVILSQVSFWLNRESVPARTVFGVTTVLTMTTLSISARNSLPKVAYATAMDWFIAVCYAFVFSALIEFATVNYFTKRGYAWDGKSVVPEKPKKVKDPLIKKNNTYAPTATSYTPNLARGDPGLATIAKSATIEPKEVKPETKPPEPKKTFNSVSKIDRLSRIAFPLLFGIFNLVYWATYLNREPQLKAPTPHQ

[10] = target: T6, 5-hydroxytryptamine receptor 3A (Homo sapiens, UniProt P46098); format: functional
T6 sequence (P46098 whole entry): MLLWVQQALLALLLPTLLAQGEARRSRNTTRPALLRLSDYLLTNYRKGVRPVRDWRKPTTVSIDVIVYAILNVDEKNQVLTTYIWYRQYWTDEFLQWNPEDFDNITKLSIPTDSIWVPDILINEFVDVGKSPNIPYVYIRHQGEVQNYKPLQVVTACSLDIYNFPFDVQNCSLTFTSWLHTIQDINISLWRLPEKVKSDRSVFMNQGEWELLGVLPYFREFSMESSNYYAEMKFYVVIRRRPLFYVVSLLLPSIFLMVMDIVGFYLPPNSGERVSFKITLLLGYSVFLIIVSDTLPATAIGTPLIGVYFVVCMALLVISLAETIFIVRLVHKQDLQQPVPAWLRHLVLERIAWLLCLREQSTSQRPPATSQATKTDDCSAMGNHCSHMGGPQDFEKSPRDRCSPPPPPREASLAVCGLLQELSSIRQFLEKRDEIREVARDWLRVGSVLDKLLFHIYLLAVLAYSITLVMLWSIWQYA

[11] = target: Delta-type opioid receptor (Homo sapiens, UniProt P41143)
Sequence of Delta-type opioid receptor (P41143 whole entry): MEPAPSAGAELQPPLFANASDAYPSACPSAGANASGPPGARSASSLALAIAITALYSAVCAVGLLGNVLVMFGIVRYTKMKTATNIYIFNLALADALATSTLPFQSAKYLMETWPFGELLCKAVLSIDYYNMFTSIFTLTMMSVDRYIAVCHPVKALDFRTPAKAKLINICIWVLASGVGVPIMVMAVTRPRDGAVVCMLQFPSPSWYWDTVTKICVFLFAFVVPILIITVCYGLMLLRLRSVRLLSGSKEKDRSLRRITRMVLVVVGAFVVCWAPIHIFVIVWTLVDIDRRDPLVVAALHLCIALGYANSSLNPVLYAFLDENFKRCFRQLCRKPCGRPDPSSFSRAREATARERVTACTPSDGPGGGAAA
Also: assay procedure not described here.

| Structure (SMILES) | AC50 (Adenosine receptor A3 [1]) [µM] | AC50 (Adenosine receptor A3 [2]) [µM] | AC50 [3] [µM] | AC50 [4] [µM] | AC50 [5] [µM] | AC50 [6] [µM] | AC50 [7] [µM] | AC50 [8] [µM] | AC50 [9] [µM] | AC50 [10] [µM] | AC50 [11] [µM] |
| --- | --- | --- | --- | --- | --- | --- | --- | --- | --- | --- | --- |
| CC(=O)/N=c1/sc(S(N)(=O)=O)nn1C [METHAZOLAMIDE] | > 10 | > 30 | > 10 | > 10 | > 10 | > 30 | > 30 | > 10 | > 10 | > 30 | > 30 |
| CC(=O)Oc1ccccc1C(=O)Nc1ncc([N+](=O)[O-])s1 [NITAZOXANIDE] | 5 | 9.88 | > 30 | 8.8 | 5.6 | > 30 | 4.33 | 1.4 | > 30 | 3.1 | 5 |
